In US10106522B2, “Benzimidazole derivatives as antihistamine agents” (Faes Farma, S.A., priority 2014, dated 2018):
Like-named read-outs stand apart in the source and are kept apart here.

Experiments:
[1] = target: human histamine H1-receptor (Homo sapiens (Human), UniProt P35367); test: Affinity for histamine H1-receptor: 3H-pyrilamine binding to membranes of CHO cells transfected with the human H1 receptor
Protocol: Affinity for histamine H1-receptor was determined by binding studies to H1 receptors. The sample used is a suspension of membranes of CHO cells transfected with the human H1 receptor (5 mg/ml, PerkinElmer), stored at −80° C. until use. After thawing, the membranes were homogenized in assay buffer (50 mM Na/K phosphate) prepared in purified water and kept at room temperature (pH 7.4). The assay was performed in 96-well microplates. In each well, 25 μl of buffer and 25 μl of vehicle (total binding) or 10 μM pyrilamine (nonspecific binding) or the products to be tested was added. Subsequently, 200 μl of the membrane suspension was added to all wells and the microtiter plate was preincubated at 25° C. for 15 min. After this time, 25 μl of 3H-pyrilamine (1.5 nM) was added and the reaction was allowed to incubate for 60 min at 25° C. Then, free radioligand was quickly separated from bound radioligand by vacuum filtration (Multiscreen microplate Screener), performing 10 washes with assay buffer (4° C.). Subsequently 45 μl of scintillation fluid was added to each well and after sealing of the microplate, the radioactivity was quantified in a liquid scintillation counter (TopCount). The graphs of the inhibition curves and calculation the IC50 value were generated with the GraphPad Prism program.
Affinity for histamine H1-receptor of four compounds from the state of the art was determined by binding studies to H1 receptors using the same protocol as described above. The graphs of the inhibition curves and calculation the IC50 value were generated also with the GraphPad Prism program.

histamine papules = test: Antihistaminic activity: histamine papules in rats (Evans blue extraction); format: in vivo; conditions: 20 mg/kg oral gavage, intradermal histamine one hour after administration
Protocol: Antihistaminic activity: histamine papules [Mota I., Life Sci., 1963, 12, 917-927; Lefebvre P. et al., C. R. Soc. Biol., 1962, 156, 183-186; and Udaka K. et al., Proc Soc Exp Biol Med, 1970, 133, 1384-1387]
Rats, males and/or females (110-160 g) were used, kept under the usual conditions of temperature and humidity. Previous day, backs of the animals were shaved and since that time (16-24 h) animals were subjected to solid fast but supplied ad libitum with an aqueous solution of sucrose (8%) and sodium chloride (0.2%). The compounds to be tested were dissolved in tartaric acid (Probus 015420) 0.1 M at a concentration of 5 mg/ml and then diluted with water until the concentration to be tested. This suspension or solution of the compound to be tested was administered by rigid oral gavage at 10 mL/kg. The control group received by the same administration mode a solution of tartaric acid (Probus 015420) 0.1 M in water. One hour after oral administration (products, patterns or vehicle), and under light ether anesthesia, two bumps were made on the shaved back by intradermal injection of Histamine hydrochloride (Sigma H-7250) dissolved in sterile saline (10 mg/0.1 mL/papule). Immediately after, dye injection of Evans blue (Merck No. 3169) dissolved in sterile saline (25 mg/kg/4 mL) was administered intravenously. […] The concentration of extracted Evans blue was determined by microplate reader.

[2] = compounds of the invention, 3H-pyrilamine 1.5 nM, 60 min at 25° C., CHO cell membranes, read-out: IC50, affinity for human histamine H1-receptor
[3] = comparative compounds from the state of the art, same protocol, read-out: IC50, affinity for human histamine H1-receptor for comparative compounds

human histamine H1-receptor, sequence (P35367 whole entry): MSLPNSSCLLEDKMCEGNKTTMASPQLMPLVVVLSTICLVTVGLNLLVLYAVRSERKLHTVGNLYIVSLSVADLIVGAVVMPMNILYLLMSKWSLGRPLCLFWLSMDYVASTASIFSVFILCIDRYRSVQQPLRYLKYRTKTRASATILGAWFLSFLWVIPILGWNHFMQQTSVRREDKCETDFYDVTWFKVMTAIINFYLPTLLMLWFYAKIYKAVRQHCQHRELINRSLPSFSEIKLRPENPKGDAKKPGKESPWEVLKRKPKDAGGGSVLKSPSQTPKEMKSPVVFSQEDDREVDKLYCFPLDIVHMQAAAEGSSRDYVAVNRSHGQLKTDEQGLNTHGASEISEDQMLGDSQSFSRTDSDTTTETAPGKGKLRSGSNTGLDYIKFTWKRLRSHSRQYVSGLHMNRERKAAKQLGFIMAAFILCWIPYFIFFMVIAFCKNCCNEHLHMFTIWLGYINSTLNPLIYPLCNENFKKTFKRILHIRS

IC50 [1, 2] [nM] | IC50 [1, 3] [nM] | Compound | other results
25 |  | CCOCCn1c(C2CCN(CCO)CC2)nc2ccccc21 | 
115 |  | CCOCCOCCN1CCC(c2nc3ccccc3n2CCOCC)CC1 | 
28 |  | CCOCCn1c(C2CCN(CCCO)CC2)nc2ccccc21 | 
93 |  | CCOCCn1c(C2CCN(CCOC)CC2)nc2ccccc21 | 
54 |  | CCOCCn1c(C2CCN(CCOC(C)=O)CC2)nc2ccccc21 | 
175 |  | OCCN1CCC(c2nc3ccccc3n2Cc2ccccn2)CC1 | 
169 |  | CCOCCn1c(C2CCN(CCOCC(=O)OCC)CC2)nc2ccccc21 | 
195 |  | COC(=O)COCCN1CCC(c2nc3ccccc3n2CCOc2ccccc2)CC1 [drawing 32] | 
 |  | COC(=O)COCCN1CCC(c2nc3ccccc3n2CCOc2ccccc2)CC1 [drawing 37] | % inhibition, histamine papules (histamine papules): 45.03%
 | 424 | CCOCCn1c(C2CCN(CCc3ccc(C(C)(C)C)cc3)CC2)nc2ccccc21 [reference compound] | 
 | 1990 | CCOCCn1c(C2CCN(CCOc3ccc(CC(=O)O)cc3)CC2)nc2ccccc21 [reference compound] | 
 | 271 | O=C(O)Cc1ccc(OCCN2CCC(c3nc4ccccc4n3CCOc3ccccc3)CC2)cc1 [reference compound] | 
 | 260 | O=C(O)c1ccc(OCCN2CCC(c3nc4ccccc4n3CCOc3ccccc3)CC2)cc1 [reference compound] | 
